pEC50: −log10 of the molar value. Where a name gives a salt, the structure may show the parent alone.
Biological target: T1, hTRPM8 (Homo sapiens, UniProt Q7Z2W7)
T1 construct: expressed in transfected cells
Test: Assay on TRPM8 modulators: calcium imaging (Fluo-4, Flexstation) in HEK293 cell line stably expressing hTRPM8
Format: cell-based
Conditions: TRPM8 agonist activity, calcium influx, HEK293 stably expressing hTRPM8, sigmoidal dose-response fit
Method: A HEK293 cell line stably expressing hTRPM8 was generated according to Klein et al., (Chem. Senses 36: 649-658, 2011) and receptor activation was monitored by calcium imaging in a Flexstation. For Ca-imaging assays of TRPM8 channel activation, cells were seeded on day 0 at a density of 12000 cells per well in Dulbecco's modified Eagle medium (DMEM) containing 9% foetal bovine serum in black, clear bottom 96-well plates that had been coated with 0.001% polyethyleneimine (molecular weight=60 000, Acros Organics). On day 2, agonists were evaluated via calcium imaging using Fluo-4. Briefly, growth medium was discarded, and the cells were incubated in the dark for 1 h at 37° C. in 50 μL loading buffer consisting of 2.7 μM Fluo-4 AM (Invitrogen) and […] probenecid (Sigma-Aldrich) in DMEM (without serum). After incubation, the plates were washed five times with 100 μL of assay buffer (in mM: 130 NaCl, 5 KCl, 10 HEPES, 2 CaCl2, and 10 glucose, pH7.4.) and further incubated in the dark at room temperature for 30 min. The cells were then washed five times with 100 μL assay buffer and then calcium influx to serial dilutions of inventive compounds were measured in a Flexstation 3 (Molecular Devices). Receptor activation was initiated following addition of 20 μl of a 10-fold concentrated ligand stock solution, which is also prepared in assay buffer. Fluorescence was continuously monitored for 15 seconds prior to ligand addition and for 105 seconds after ligand addition, for a total of 120 seconds. Maximal receptor activation in relation to solvent control and relative to 31.6 μM menthol is determined. Data from serial dilutions were processed with a KNIME workflow to fit a sigmoidal dose-response curve and to extrapolate EC50 values.

T1 sequence (Q7Z2W7 whole entry): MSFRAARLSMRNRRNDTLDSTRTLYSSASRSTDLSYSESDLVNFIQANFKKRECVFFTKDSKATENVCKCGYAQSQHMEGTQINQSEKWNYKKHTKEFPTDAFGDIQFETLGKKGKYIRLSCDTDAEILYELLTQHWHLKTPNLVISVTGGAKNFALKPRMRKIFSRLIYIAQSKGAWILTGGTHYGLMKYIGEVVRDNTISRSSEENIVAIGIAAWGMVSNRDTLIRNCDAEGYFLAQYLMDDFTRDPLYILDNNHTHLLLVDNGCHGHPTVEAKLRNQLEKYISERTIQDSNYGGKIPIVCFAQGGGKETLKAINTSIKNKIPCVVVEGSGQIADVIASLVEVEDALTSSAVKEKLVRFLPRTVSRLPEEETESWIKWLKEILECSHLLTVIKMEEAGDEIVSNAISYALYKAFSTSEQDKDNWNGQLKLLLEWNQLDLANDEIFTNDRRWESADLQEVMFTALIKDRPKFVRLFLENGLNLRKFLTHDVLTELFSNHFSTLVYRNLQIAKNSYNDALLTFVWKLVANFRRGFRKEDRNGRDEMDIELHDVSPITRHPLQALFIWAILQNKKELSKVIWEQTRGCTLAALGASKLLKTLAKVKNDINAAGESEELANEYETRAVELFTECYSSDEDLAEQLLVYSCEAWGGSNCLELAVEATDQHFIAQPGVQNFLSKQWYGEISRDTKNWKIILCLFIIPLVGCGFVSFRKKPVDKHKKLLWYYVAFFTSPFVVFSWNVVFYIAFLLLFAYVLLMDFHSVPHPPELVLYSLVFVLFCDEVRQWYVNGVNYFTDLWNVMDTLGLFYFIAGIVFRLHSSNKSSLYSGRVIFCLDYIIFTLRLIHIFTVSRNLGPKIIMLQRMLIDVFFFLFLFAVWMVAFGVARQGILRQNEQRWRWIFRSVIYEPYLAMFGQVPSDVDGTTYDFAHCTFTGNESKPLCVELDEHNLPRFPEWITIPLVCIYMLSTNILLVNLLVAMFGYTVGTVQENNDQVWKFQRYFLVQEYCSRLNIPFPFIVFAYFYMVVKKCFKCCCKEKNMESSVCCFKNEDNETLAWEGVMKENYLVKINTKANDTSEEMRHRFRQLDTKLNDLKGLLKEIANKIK

## Cc1ccc(OCCN2CCC(CO)CC2)c(Cc2ccccc2)c1 [compound 40, (1-(2-(2-benzyl-4-methylphenoxy)ethyl)piperidin-4-yl)methanol]
  pEC50: 4.46 to 6.00

## Cc1ccc(OCCN2CCN(C)CC2)c(C(O)c2ccccc2)c1 (centres unmarked) [compound 41, (5-methyl-2-(2-(4-methylpiperazin-1-yl)ethoxy)phenyl)(phenyl)methanol]
  pEC50: 4.46 to 6.00

## Cc1ccc(OCCN2CCN(C)CC2)c(C(=O)c2ccccc2)c1 [compound 42, (5-methyl-2-(2-(4-methylpiperazin-1-yl)ethoxy)phenyl)(phenyl)methanone]
  pEC50: 4.46 to 6.00

## CC1=C(OCCN2CCN(C)CC2)/C(=C/c2ccccc2)CC(C)C1 (centres unmarked) [compound 43, (E)-1-(2-((6-benzylidene-2,4-dimethylcyclohex-1-en-1-yl)oxy)ethyl)-4-methylpiperazine]
  pEC50: 4.46 to 6.00

## Cc1ccc(/C=C/CN2CCN(C)CC2)c(Cc2ccccc2)c1 [compound 44, (E)-1-(3-(2-benzyl-4-methylphenyl)allyl)-4-methylpiperazine]
  pEC50: 4.46 to 6.00

## Cc1ccc(OCCN2CCN(C)CC2)c(/C=C2\CCCCC2=O)c1 [compound 46, (E)-2-(5-methyl-2-(2-(4-methylpiperazin-1-yl)ethoxy)benzylidene)cyclohexan-1-one]
  pEC50: 6.00 to 6.52

## Cc1ccc(OCCN2CCOCC2)c(/C=C2\CCCCC2=O)c1 [compound 47, (E)-2-(5-methyl-2-(2-morpholinoethoxy)benzylidene)cyclohexan-1-one]
  pEC50: 6.52 to 7.30

## Cc1cc(C)c(OCC(C)N2CCOCC2)c(Cc2ccccc2C#N)c1 (centres unmarked) [compound 48, 2-(3,5-dimethyl-2-(2-morpholinopropoxy)benzyl)benzonitrile]
  pEC50: 6.52 to 7.30

## Cc1cc(C)c(OC(C)CN2CCOCC2)c(Cc2ccccc2C#N)c1 (centres unmarked) [compound 49, 2-(3,5-dimethyl-2-((1-morpholinopropan-2-yl)oxy)benzyl)benzonitrile]
  pEC50: 6.52 to 7.30

## CN1CCN(CC2CCc3cccc(Cc4ccccc4)c3O2)CC1 (centres unmarked) [compound 50, 1-((8-benzylchroman-2-yl)methyl)-4-methylpiperazine]
  pEC50: 4.46 to 6.00

## CC1CCC(OCCN2CCN(C)CC2)C(Cc2ccccc2)C1 (centres unmarked) [compound 51, 1-(2-((2-benzyl-4-methylcyclohexyl)oxy)ethyl)-4-methylpiperazine]
  pEC50: 4.46 to 6.00

## CC1CCC(OCCN2CCN(C)CC2)C(Cc2ccccc2)C1 (centres unmarked) [compound 52, 1-(2-((2-benzyl-4-methylcyclohexyl)oxy)ethyl)-4-methylpiperazine dihydrochloride]
  pEC50: 4.46 to 6.00

## Cc1ccc(OCCN2CCN(C)CC2)c(Cc2ccc(Cl)s2)c1 [compound 53, 1-(2-(2-((5-chlorothiophen-2-yl)methyl)-4-methylphenoxy)ethyl)-4-methylpiperazine]
  pEC50: 4.46 to 6.00

## Cc1cc(C)c(OCCN2CCN(C)CC2)c(Cc2ccccc2Br)c1 [compound 54, 1-(2-(2-(2-bromobenzyl)-4,6-dimethylphenoxy)ethyl)-4-methylpiperazine]
  pEC50: 6.00 to 6.52

## Cc1ccc(OCCN2CCN(C)CC2)c(Cc2ccccc2Cl)c1 [compound 55, 1-(2-(2-(2-chlorobenzyl)-4-methylphenoxy)ethyl)-4-methylpiperazine]
  pEC50: 6.52 to 7.30

## Cc1cc(C)c(OCCN2CCN(C)CC2)c(Cc2ccccc2F)c1 [compound 56, 1-(2-(2-(2-fluorobenzyl)-4,6-dimethylphenoxy)ethyl)-4-methylpiperazine]
  pEC50: 6.52 to 7.30

## Cc1cc(C)c(OCCN2CCN(C)CC2)c(Cc2ccccc2I)c1 [compound 57, 1-(2-(2-(2-iodobenzyl)-4,6-dimethylphenoxy)ethyl)-4-methylpiperazine]
  pEC50: 6.00 to 6.52

## Cc1cc(C)c(OCCN2CCN(C)CC2)c(Cc2cccc(Br)c2)c1 [compound 58, 1-(2-(2-(3-bromobenzyl)-4,6-dimethylphenoxy)ethyl)-4-methylpiperazine]
  pEC50: 4.46 to 6.00

## Cc1ccc(OCCN2CCN(C)CC2)c(Cc2cccc(Cl)c2)c1 [compound 59, 1-(2-(2-(3-chlorobenzyl)-4-methylphenoxy)ethyl)-4-methylpiperazine]
  pEC50: 4.46 to 6.00

## Cc1ccc(OCCN2CCN(C)CC2)c(Cc2ccc(Cl)cc2)c1 [compound 60, 1-(2-(2-(4-chlorobenzyl)-4-methylphenoxy)ethyl)-4-methylpiperazine hydrochloride]
  pEC50: 4.46 to 6.00

## Cc1ccc(OCCN2CCN(C)CC2)c(Cc2ccco2)c1 [compound 61, 1-(2-(2-(furan-2-ylmethyl)-4-methylphenoxy)ethyl)-4-methylpiperazine]
  pEC50: 4.46 to 6.00

## Cc1cc(C)c(OCCN2CCN(C)CC2)c(Cc2ccccc2C(F)(F)F)c1 [compound 62, 1-(2-(2,4-dimethyl-6-(2-(trifluoromethyl)benzyl)phenoxy)ethyl)-4-methylpiperazine]
  pEC50: 6.00 to 6.52

## Cc1cc(C)c(OCCN2CCN(C)CC2)c(Cc2ccccn2)c1 [compound 63, 1-(2-(2,4-dimethyl-6-(pyridin-2-ylmethyl)phenoxy)ethyl)-4-methylpiperazine]
  pEC50: 4.46 to 6.00

## Cc1cc(C)c(OCCN2CCN(C)CC2)c(Cc2cccnc2)c1 [compound 64, 1-(2-(2,4-dimethyl-6-(pyridin-3-ylmethyl)phenoxy)ethyl)-4-methylpiperazine]
  pEC50: 4.46 to 6.00

## Cc1cc(C)c(OCCN2CCN(C)CC2)c(Cc2ccncc2)c1 [compound 65, 1-(2-(2,4-dimethyl-6-(pyridin-4-ylmethyl)phenoxy)ethyl)-4-methylpiperazine]
  pEC50: 4.46 to 6.00

## Cc1ccc(C)c(OCCN2CCN(C)CC2)c1Cc1ccccc1 [compound 66, 1-(2-(2-benzyl-3,6-dimethylphenoxy)ethyl)-4-methylpiperazine]
  pEC50: 4.46 to 6.00

## COc1cccc(OCCN2CCN(C)CC2)c1Cc1ccccc1 [compound 67, 1-(2-(2-benzyl-3-methoxyphenoxy)ethyl)-4-methylpiperazine]
  pEC50: 4.46 to 6.00

## Cc1cccc(OCCN2CCN(C)CC2)c1Cc1ccccc1 [compound 68, 1-(2-(2-benzyl-3-methylphenoxy)ethyl)-4-methylpiperazine]
  pEC50: 4.46 to 6.00

## COc1cc(C(C)(C)C)cc(Cc2ccccc2)c1OCCN1CCN(C)CC1 [compound 69, 1-(2-(2-benzyl-4-(tert-butyl)-6-methoxyphenoxy)ethyl)-4-methylpiperazine]
  pEC50: 4.46 to 6.00

## Cc1cc(C)c(OCCN2CCN(C)CC2)c(Cc2ccccc2)c1 [compound 70, 1-(2-(2-benzyl-4,6-dimethylphenoxy)ethyl)-4-methylpiperazine]
  pEC50: 6.00 to 6.52

## CCN1CCN(CCOc2ccc(Cl)cc2Cc2ccccc2)CC1 [compound 72, 1-(2-(2-benzyl-4-chlorophenoxy)ethyl)-4-ethylpiperazine hydrochloride]
  pEC50: 4.46 to 6.00

## CN1CCN(CCOc2ccc(Cl)cc2Cc2ccccc2)CC1 [compound 73, 1-(2-(2-benzyl-4-chlorophenoxy)ethyl)-4-methylpiperazine hydrochloride]
  pEC50: 6.00 to 6.52

## CCc1ccc(OCCN2CCN(C)CC2)c(Cc2ccccc2)c1 [compound 74, 1-(2-(2-benzyl-4-ethylphenoxy)ethyl)-4-methylpiperazine hydrochloride]
  pEC50: 6.00 to 6.52

## CC(C)c1ccc(OCCN2CCN(C)CC2)c(Cc2ccccc2)c1 [compound 75, 1-(2-(2-benzyl-4-isopropylphenoxy)ethyl)-4-methylpiperazine]
  pEC50: 4.46 to 6.00

## CCN1CCN(CCOc2ccc(C)cc2Cc2ccccc2)CC1 [compound 76, 1-(2-(2-benzyl-4-methylphenoxy)ethyl)-4-ethylpiperazine hydrochloride]
  pEC50: 4.46 to 6.00

— patent US20230098332A1, “HETEROCYCLIC DERIVATIVES AS TRMP8 ANTAGONISTS” (Givaudan SA, priority 2020, published 2023)
